What all share (type): physicochemical
Data set [1] can be described thus: Solubility in sunscreen formulation / 3% solution in EtOH:capric/caprylic triglyceride:C12-C15 alkyl benzoate. Conditions: for Solubility in standard commercial sunscreen formulations: e.g. 3% solution in 2:1:1 EtOH:capric/caprylic triglyceride:C12-C15 alkyl benzoate. The protocol:
In one embodiment, the compounds may provide for improved solubility or stability in standard compositions, including sunscreen compositions. […] Such solubility may be measured by generating, for example, a 3% solution of the relevant compound in 2:1:1 EtOH:capric/caprylic triglyceride:C12-C15 alkyl benzoate.
(§1) 1 mL of a 3% solution of the test compound (30 mg of test compound in 1 mL solvent) was prepared in a solvent mix made up of 50% EtOH and 25% capric/caprylic triglyceride and 25% C12-C15 alkyl benzoate. 50 μL of this solution (containing 1.5 mg of test compound) was added carefully to the centre of a glass microscope slide and the volatile components left to evaporate in the dark for at least 3 hours to give a liquid film. The prepared films were then exposed for 1 hour to an Eimac 150 W xenon arc lamp filtered through Pyrex (15 Amp supply current, samples 19 cm from the lamp) previously allowed to warm up for 15 minutes prior to sample exposure. The irradiation was performed in a fume cupboard where the air flow was sufficient to keep sample T<30° C. One hour's exposure represented a calculated radiation dose (using meter) of approximately 100 MED.

Data set [2] can be described thus: Photostability of thin films exposed to xenon arc lamp. Conditions: for % λmax (% of original absorbance remaining): absorbance at λmax, irradiated vs unirradiated; for % λmax (% of original absorbance remaining) / % abs total (% of original absorbance remaining): xenon arc lamp 1 hour, thin film; for % abs total (% of original absorbance remaining): sum of absorbance 290-400 nm. The protocol: as §1, with “The prepared films were then exposed for 1 hour to an Eimac 150 W xenon arc lamp filtered through Pyrex (15 Amp supply current, samples 19 cm from the lamp) previously allowed to warm up for 15 minutes prior to sample exposure.” left out
In order to calculate the photostability of the test compounds, the exposed slides were placed in a beaker and rinsed with 2×5 mL EtOH, 1×5 mL MeOH. The combined washings were then added to a 100 mL volumetric flask and made up to 100 mL total volume with methanol. The UV absorbance was then measured in a 10 mm cuvette. The percent stability is measured as the ratio of absorbance at λmax for the irradiated sample compared to the unirradiated sample. As a further measure, a comparison of the sum of the absorbance in the 290-400 nm range was calculated.
The thin films are a good surrogate for testing the stability of a candidate in a sunscreen formulation as they use cosmetic emollients as solvent and are formed at cosmetically relevant concentrations.

The nature of data set [3]: UV/visible absorbance characteristics (λmax, λcrit, ε, E 1%,1 cm). Particulars: for ε: in M-1 cm-1 (unit assumed); for Peak point of absorbance curve (figure legend): unirradiated control, FIGS. 3-5.

On to `CC1(C)CCN(c2ccc(N3C=C(C(=O)CCC(F)(F)F)C(C)(C)CC3)cc2)C=C1C(=O)CCC(F)(F)F` [Compound 157], for which the “Solubility in standard commercial sunscreen formulations” value in data set [1] was “readily soluble”. For the same compound, the “% λmax (% of original absorbance remaining)” value in data set [2] was found to be 54%.

For `CC1(C)CCN(C(C)(C)C)C=C1C(=O)CF`, in data set [3] (Table 5), the “E (1%, 1 cm)” value came to 1655; the λcrit came out at 326 nm; the λmax worked out at 310 nm; the ε is 37586. Also, the “Photostability (%)” value in data set [2] (Table 5) stood at 30%.

Regarding `CC1(C)CCN(C(C)(C)C)C=C1C(=O)CCCCCCCCC(=O)C1=CN(C(C)(C)C)CCC1(C)C` [Compound 54], in data set [3] (Table 6), the “E (1%, 1 cm)” value was 1197 and the ε was determined as 59850. Besides, in data set [3], the “Peak point of absorbance curve (figure legend)” value (“Peak point of absorbance curve” below) is recorded as “approximately 310 nm”. Besides, the “Photostability (%)” value in data set [2] (Table 6) was 63%. Also, in data set [2], the “% λmax (% of original absorbance remaining)” value is 63% and the “% abs total (% of original absorbance remaining)” value worked out at 61%.

For `CC1(C)CCN(C(C)(C)C)C=C1C(=O)C(Br)(Br)Br` [Compound 170], in data set [3] (Table 6), the “E (1%, 1 cm)” value is reported as 321; the λcrit is listed as 361 nm; the λmax is given as 330 nm; the ε amounted to 14203. For the same compound, the “Fate under irradiation” value in data set [2] was “effectively destroyed”. In addition, the “Photostability (%)” value in data set [2] (Table 6) is on record as 13%.

Turning to `CC1(C)CCN(c2cccc(N3C=C(C(=O)C(F)(F)C(F)(F)C(F)(F)F)C(C)(C)CC3)c2)C=C1C(=O)C(F)(F)C(F)(F)C(F)(F)F` [Compound 159], in data set [3] (Table 1), the “E (1%, 1 cm)” value amounted to 875; the λcrit is listed as 366 nm; the λmax came out at 348 nm; the ε was determined as 60200. Further, in data set [3] (Table 4), the “E (1%, 1 cm)” value came out at 875 and the ε is given as 60200. The “Photostability (% remains)” value in data set [2] (1 h irradiation) is given as 91%.

In the case of `CCCOC(=O)CCC(=O)C1=CN(c2ccc(N3C=C(C(=O)CCC(=O)OCCC)C(C)(C)CC3)cc2)CCC1(C)C` [Compound 152], the “Solubility in standard commercial sunscreen formulations” value in data set [1] was “readily soluble”.

On to `COc1ccc(N2C=C(C(=O)C(F)(F)F)C(C)(C)CC2)cc1N1C=C(C(=O)C(F)(F)F)C(C)(C)CC1`, for which, in data set [3] (Table 5), the “E (1%, 1 cm)” value was found to be 1094; the λcrit turned out to be 364 nm; the λmax came to 340 nm; the ε is 56720. Moreover, the “Photostability (%)” value in data set [2] (Table 5) came out at 100%.

On to `CC1(C)CCN(c2ccccc2)C=C1C(=O)C(F)(F)F` [Compound 106], for which, in data set [3] (Table 1), the “E (1%, 1 cm)” value is 1033; the λcrit is on record as 357 nm; the λmax worked out at 335 nm; the ε worked out at 29040. Moreover, in data set [3], the “Peak point of absorbance curve” value was “approximately 335 nm”. Further, in data set [2], the “% λmax (% of original absorbance remaining)” value is recorded as 97% and the “% abs total (% of original absorbance remaining)” value turned out to be 97%. Also, the “% decomposed after irradiation” value in data set [2] (exposure to the lamp for 1 h) was “less than 5%”.

In turn, `CN(CCCCCCN(C)c1ccc(C(=O)C2=CN(C(C)(C)C)CCC2(C)C)cc1)c1ccc(C(=O)C2=CN(C(C)(C)C)CCC2(C)C)cc1` [Compound 109] registered a λcrit in data set [3] (Table 1) of 364 nm. Moreover, the “Photostability, % remaining after irradiation” value in data set [2] (exposure to the lamp for 1 h) amounted to 22%.

Turning to `CC1(C)CCN(C(C)(C)C)C=C1C(=O)C(Br)(Br)Br` [drawing 125], in data set [3] (Table 5), the “E (1%, 1 cm)” value is reported as 321; the λcrit is given as 361 nm; the λmax was determined as 330 nm; the ε is listed as 14203. Besides, the “Photostability (%)” value in data set [2] (Table 5) was 13%.

As to `CC(C)=CCCC(C)CC(=O)C1=CN(c2ccc(N3C=C(C(=O)CC(C)CCC=C(C)C)C(C)(C)CC3)cc2)CCC1(C)C` (centres unmarked) [Compound 154], the “Solubility in standard commercial sunscreen formulations” value in data set [1] was “readily soluble”.

`CC1(C)CCN(C(C)(C)C)C=C1C(=O)C(F)(F)C(F)(F)C(F)(F)C(=O)C1=CN(C(C)(C)C)CCC1(C)C` [Compound 168]: the “Solubility for determination of photostability” value in data set [1] (solvent mix of the photostability method) is “not sufficiently soluble”. Besides, in data set [3] (Table 6), the “E (1%, 1 cm)” value was 1177; the λcrit came to 337 nm; the λmax stood at 317 nm; the ε was found to be 63346.

As to `CC1(C)CCN(C(C)(C)C)C=C1C(=O)C(Cl)(Cl)Cl` [drawing 124], in data set [3] (Table 5), the “E (1%, 1 cm)” value amounted to 497; the λcrit was 361 nm; the λmax was found to be 334 nm; the ε is on record as 16618. In addition, the “Photostability (%)” value in data set [2] (Table 5) is given as 5%.

In the case of `CC1(C)CCN(c2cccc(N3C=C(C(=O)C(F)(F)F)C(C)(C)CC3)c2)C=C1C(=O)C(F)(F)F` [Compound 160], in data set [3] (Table 1), the “E (1%, 1 cm)” value came to 1380; the λcrit is recorded as 364 nm; the λmax is 346 nm; the ε worked out at 67344. For the same compound, in data set [3] (Table 4), the “E (1%, 1 cm)” value stood at 1380 and the ε was 67344. In data set [2] (after 1.5 h irradiation), the “Photostability (% remains)” value is given as 99 (after 1.5 h, others = 1 h) %.

As for `CCCCC(CC)COC(=O)CCC(=O)C1=CN(c2ccc(N3C=C(C(=O)CCC(=O)OCC(CC)CCCC)C(C)(C)CC3)cc2)CCC1(C)C` (centres unmarked) [Compound 153], the “Solubility in standard commercial sunscreen formulations” value in data set [1] is reported as “readily soluble”. In addition, the “% λmax (% of original absorbance remaining)” value in data set [2] came out at 52%.

For the compound `CC1(C)CCN(C(C)(C)C)C=C1C(=O)C(F)(F)F` [Compound 98], in data set [3] (Table 1), the “E (1%, 1 cm)” value came to 1380; the λcrit came out at 331 nm; the λmax came to 315 nm; the ε amounted to 36298. In data set [3] (Table 6), the “E (1%, 1 cm)” value was determined as 1380; the λcrit is on record as 331 nm; the λmax is 315 nm; the ε was 36298. Also, in data set [3], the “Peak point of absorbance curve” value is “approximately 320 nm”. Also, the “Photostability (%)” value in data set [2] (Table 6) worked out at 89%. Further, in data set [2], the “% λmax (% of original absorbance remaining)” value came out at 88% and the “% abs total (% of original absorbance remaining)” value is on record as 84%. Further, the “Photostability, % remaining after irradiation” value in data set [2] (exposure to the lamp for 1 h) stood at 88%.

As to `CC1(C)CCN(C(C)(C)C)C=C1C(=O)C(Cl)(Cl)Cl` [Compound 169], in data set [3] (Table 6), the “E (1%, 1 cm)” value worked out at 497; the λcrit is on record as 361 nm; the λmax is listed as 334 nm; the ε came to 16618. In addition, the “Fate under irradiation” value in data set [2] was “effectively destroyed”. Moreover, the “Photostability (%)” value in data set [2] (Table 6) came out at 5%.

In the case of `CC(C)=CCCC(C)CC(=O)C1=CN(c2ccc(N3C=C(C(=O)CC(C)CCC=C(C)C)C(C)(C)CC3)cc2)CCC1(C)C` (centres unmarked) [Compound 155], in data set [1], the “Solubility in standard commercial sunscreen formulations” value is recorded as “readily soluble”.

With `CC(F)(F)C(=O)C1=CN(C(C)(C)C)CCC1(C)C`, in data set [3] (Table 5), the “E (1%, 1 cm)” value was 1285; the λcrit came out at 331 nm; the λmax is 314 nm; the ε worked out at 33288. In data set [2] (Table 5), the “Photostability (%)” value came out at 49%.

Values taken from patent US10315994B2, “Photostable compounds, absorbing compounds and uses thereof” (Commonwealth Scientific and Industrial Research Organisation, priority 2015, dated 2019).
